Assays:
[1] = system: HT29; experiment: Cell viability MTS assay; assay type: cell-based, human
Experimental: (§1) Cell viability was determined by measuring the activity of dehydrogenase enzymes in metabolically active cells using a tetrazolium compound, MTS. The assay was performed as described in Promega Technical Bulletin No. 169 (CellTiter 96 Aqueous Non-Radioactive Cell Proliferation Assay). Thirteen human cancer cell lines were assayed (see, e.g., Table 1). Cells were maintained at 37° C., 5% CO2. Adherent cells were maintained DMEM media (4.5 g/L glucose) supplemented with 15% heat-inactivated FBS, 10 mM L-glutamine, and 10 mM Hepes pH 7.5. Suspension cells were maintained in RPMI 1640 media, supplemented with 10% heat-inactivated FBS and 10 mM Hepes pH 7.5. Briefly, cells were seeded in 96-well plates as set forth in Table 1 and incubated for 16-24 hours. Candidate compounds were serially diluted in DMSO, further diluted in cell culture media, and then added to cells (final DMSO concentration of 0.33%). Cells were incubated in the presence of candidate compound for 72 hours. MTS stock solution (MTS 2 gm/L, PMS […] in PBS) was added to the cells (final concentration MTS […] and PMS 7.67 mg/L) and incubated for 4 hours. SDS was added to a final concentration of 1.4% and absorbance at 490 nm was measured within two hours using a platereader. The IC50 was defined as the concentration of compound that results in a 50% reduction in the number of viable cells as compwered to control wells treated with DMSO only (0.33%) and was calculated using non-linear regression analyswas. IC50 values were given in Table 2 for the compounds listed.

[2] = system: MDA-MB-231; experiment: Cell viability MTS assay; assay type: cell-based, human
Experimental: as §1

[3] = Homo sapiens, HT-29, 72 hours with compound
[4] = Homo sapiens, MDA-MB-231, 72 hours with compound

SMILES | IC50 [1, 3] [µM] | IC50 [2, 4] [µM] | IC50 ([1]; 72 hours with compound) [µM] | IC50 ([2]; 72 hours with compound) [µM]
O=C1NC(=O)[C@@H](c2cn3c4c(cccc24)CCC3)[C@@H]1c1ccc(Cl)cc1 (racemic) [Example 43, (±)-Trans-3-(5,6-dihydro-4H-pyrrolo[3,2,1-ij]quinolin-1yl)-4-(4-chlorophenyl)pyrrolidine-2,5-dione] | 48.7 | 54.5 | – | –
O=C1NC(=O)[C@@H](c2cn3c4c(cccc24)CCC3)[C@@H]1c1ccc(OC(F)(F)F)cc1 (racemic) [Example 44, (±)-Trans-3-(5,6-dihydro-4H-pyrrolo[3,2,1-ij]quinolin-1yl)-4-(4-trifluoromethoxyphenyl)pyrrolidine-2,5-dione] | 12.5 | 14.1 | – | –
O=C1NC(=O)[C@@H](c2cn3c4c(cccc24)CCC3)[C@@H]1c1ccsc1 (racemic) [Example 45, (±)-Trans-3-(5,6-dihydro-4H-pyrrolo[3,2,1-ij]quinolin-1yl)-4-(thiophen-3-yl)pyrrolidine-2,5-dione] | 27.6 | 42.7 | – | –
O=C1NC(=O)[C@@H](c2cn3c4c(cccc24)CCC3)[C@@H]1c1ccccc1F (racemic) [Example 46, (±)-Trans-3-(5,6-dihydro-4H-pyrrolo[3,2,1-ij]quinolin-1yl)-4-(2-fluorophenyl)pyrrolidine-2,5-dione] | 4.76 | > 100 | – | –
O=C1NC(=O)[C@@H](c2cn3c4c(cccc24)CCC3)[C@@H]1c1ccc(Cl)cc1Cl (racemic) [Example 48, (±)-Trans-3-(5,6-dihydro-4H-pyrrolo[3,2,1-ij]quinolin-1yl)-4-(2,4-dichlorophenyl)pyrrolidine-2,5-dione] | 8.39 | 14.8 | – | –
CC(N)C(=O)OCN1C(=O)[C@@H](c2c[nH]c3ccccc23)[C@H](c2cn3c4c(cccc24)CCC3)C1=O (mixture of isomers) [Example 57, (±)-trans-2-Amino-propionic acid-3-(5,6-dihydro-4H-pyrrolo[3,2,1-ij]quinolin-1-yl)-4-(1H-indol-3-yl)-2,5-dioxo-pyrrolidin-1-yl methyl ester] | – | – | 2.9 | 3.14
NCC(=O)OCN1C(=O)[C@@H](c2c[nH]c3ccccc23)[C@H](c2cn3c4c(cccc24)CCC3)C1=O (racemic) [Example 58, (±)-trans-2-Amino-acetic acid-3-(5,6-dihydro-4H-pyrrolo[3,2,1-ij]quinolin-1-yl)-4-(1H-indol-3-yl)-2,5-dioxo-pyrrolidin-1-yl methyl ester] | – | – | 2.77 | 3.45
CN(C)CC(=O)OCN1C(=O)[C@@H](c2c[nH]c3ccccc23)[C@H](c2cn3c4c(cccc24)CCC3)C1=O (racemic) [Example 59, (±)-trans-2-dimethylamino-acetic acid-3-(5,6-dihydro-4H-pyrrolo[3,2,1-ij]quinolin-1-yl)-4-(1H-indol-3-yl)-2,5-dioxo-pyrrolidin-1-ylmethyl ester] | 3.74 | 4.47 | – | –
O=C(OCN1C(=O)[C@@H](c2c[nH]c3ccccc23)[C@H](c2cn3c4c(cccc24)CCC3)C1=O)c1ccncc1 (racemic) [Example 60, (±)-trans-Isonicotinic acid-3-(5,6-dihydro-4H-pyrrolo[3,2,1-ij]quinolin-1-yl)-4-(1H-indol-3-yl)-2,5-dioxo-pyrrolidin-1-ylmethyl ester] | 3.59 | 3.55 | – | –
O=C1NC(=O)[C@@H](c2cn3c4c(cccc24)CCC3)[C@@H]1c1ccc(OCc2ccccc2)cc1 (racemic) [Example 71, (±)-Trans-3-[4-(benzyloxy)phenyl]-4-(5,6-dihydro-4H-pyrrolo[3,2,1-ij]quinolin-1-yl)pyrrolidine-2,5-dione] | 48.7 | 97.5 | – | –
O=C1NC(=O)[C@@H](c2cn3c4c(cccc24)CN(C(=O)OCc2ccccc2)CC3)[C@@H]1c1c[nH]c2ccccc12 (racemic) [Example 74, (±)-Trans-7-[4-(1H-indol-3-yl)-2,5-dioxo-pyrrolidin-3-yl]-3,4-dihydro-1H-[1,4]diazepino[6,7,1-hi]indole-2-carboxylic acid benzyl ester] | 90.7 | > 100 | – | –
O=C1NC(=O)[C@@H](c2cn3c4c(cccc24)CNCC3)[C@@H]1c1c[nH]c2ccccc12 (racemic) [Example 75, (±)-Trans-3-(1H-indol-3-yl)-4-(1,2,3,4-tetrahydro-[1,4]diazepino[6,7,1-hi]indol-7-yl)-pyrrolidine-2,5-dione] | > 100 | > 100 | – | –
O=C1[C@@H](c2c[nH]c3ccccc23)[C@H](c2cn3c4c(cccc24)CCC3)C(=O)N1COP(=O)(OCc1ccccc1)OCc1ccccc1 (relative stereo) [phosphoric acid dibenzyl ester trans-3-(5,6-dihydro-4H-pyrrolo[3,2,1-ij]quinolin-1-yl)-4-(1H-indol-3-yl)-2,5-dioxo-pyrrolidin-1-ylmethyl ester] | 22.6 | > 100 | – | –
O=C1NC(=O)C(c2cn3c4c(cccc24)CCC3)=C1c1ccccc1C(F)(F)F [Example 6, 3-(5,6-dihydro-4H-pyrrolo[3,2,1-ij]quinolin-1-yl)-4(2-trifluoromethyl-phenyl)-pyrrole-2,5-dione] | 62.7 | 61.2 | – | –
O=C1NC(=O)C(c2cn3c4c(cccc24)CCC3)=C1c1cccs1 [Example 7, 3-(5,6-Dihydro-4H-pyrrolo[3,2,1-ij]quinolin-1-yl)-4-thiophen-2-yl-pyrrole-2,5-dione] | > 100 | > 100 | – | –
O=C1NC(=O)C(c2cn3c4c(cccc24)CCC3)=C1c1ccccn1 [Example 9, 3-(5,6-Dihydro-4H-pyrrolo[3,2,1-ij]quinolin-1-yl)-4-pyridin-2-yl-pyrrole-2,5-dione] | > 100 | > 100 | – | –
COc1ccc(C2=C(c3cn4c5c(cccc35)CCC4)C(=O)NC2=O)cc1 [Example 10, 3-(5,6-Dihydro-4H-pyrrolo[3,2,1-ij]quinolin-1-yl)-4(4-methoxy-phenyl)-pyrrole-2,5-dione] | > 100 | > 100 | – | –
O=C1NC(=O)C(c2cn3c4c(cccc24)CCC3)=C1c1ccc2c(c1)OCO2 [Example 11, 3-Benzo[1,3]dioxol-5-yl-4-(5,6-dihydro-4H-pyrrolo[3,2,1-ij]quinolin-1-yl)-pyrrole-2,5-dione] | > 100 | > 100 | – | –
O=C1NC(=O)C(c2cn3c4c(cccc24)CCC3)=C1c1ccccc1 [Example 12, 3-(5,6-Dihydro-4H-pyrrolo[3,2,1-ij]quinolin-1-yl)-4-phenyl-pyrrole-2,5-dione] | 66.5 | 81.6 | – | –
O=C1NC(=O)C(c2cn3c4c(cccc24)CCC3)=C1c1cc2ccccc2s1 [Example 13, 3-Benzo[b]thiophen-2-yl-4-(5,6-dihydro-4H-pyrrolo[3,2,1-ij]quinolin-1-yl)-pyrrole-2,5-dione] | > 100 | 78.8 | – | –
O=C1NC(=O)C(c2cn3c4c(cccc24)CCC3)=C1c1cccc(Oc2ccccc2)c1 [Example 14, 3-(5,6-Dihydro-4H-pyrrolo[3,2,1-ij]quinolin-1-yl)-4-(3-phenoxy-phenyl)-pyrrole-2,5-dione] | 71.6 | 98.2 | – | –
O=C1NC(=O)C(c2cn3c4c(cccc24)CCC3)=C1c1cccc(Cl)c1 [Example 15, 3-(5,6-Dihydro-4H-pyrrolo[3,2,1-ij]quinolin-1-yl)-4-(3-chloro-phenyl)-pyrrole-2,5-dione] | 75.8 | 43.6 | – | –
O=C1NC(=O)C(c2cn3c4c(cccc24)CCC3)=C1c1ccccc1Cl [Example 16, 3-(5,6-Dihydro-4H-pyrrolo[3,2,1-ij]quinolin-1-yl)-4-(2-chloro-phenyl)-pyrrole-2,5-dione] | 40.9 | 21.5 | – | –
COc1ccc(OC)c(C2=C(c3cn4c5c(cccc35)CCC4)C(=O)NC2=O)c1 [Example 17, 3-(5,6-Dihydro-4H-pyrrolo[3,2,1-ij]quinolin-1-yl)-4(2,5-dimethoxy-phenyl)-pyrrole-2,5-dione] | > 100 | > 100 | – | –
O=C1NC(=O)C(c2cn3c4c(cccc24)CCC3)=C1c1ccc(F)cc1Cl [Example 18, 3-(5,6-Dihydro-4H-pyrrolo[3,2,1-ij]quinolin-1-yl)-4-(2-chloro-4-fluoro-phenyl)-pyrrole-2,5-dione] | > 100 | > 100 | – | –
O=C1NC(=O)C(n2ccc3ccccc32)=C1c1cn2c3c(cccc13)CCC2 [Example 22, 3-(5,6-Dihydro-4H-pyrrolo[3,2,1-ij]quinolin-1-yl)-4-indol-1-yl-pyrrole-2,5-dione] | > 100 | 59.4 | – | –
O=C1NC(=O)C(c2cn3c4c(cccc24)CCC3)=C1c1cccnc1 [Example 23, 3-(5,6-Dihydro-4H-pyrrolo[3,2,1-ij]quinolin-1-yl)-4-pyridine-3-yl-pyrrole-2,5-dione] | 76.8 | 28.7 | – | –
O=C1NC(=O)C(c2cn3c4c(cccc24)CN(C(=O)OCc2ccccc2)CC3)=C1c1c[nH]c2ccccc12 [Example 73, 7-[4-(1H-indol-3-yl)-2,5-dioxo-2,5-dihydro-1H-pyrrol-3-yl]-3,4-dihydro-1H-[1.4]diazepino[6,7,1-hi]indole-2-carboxylic acid benzyl ester] | – | – | > 100 | > 100
